Test results taken from US6369294B1, “Methods comprising apoptosis inhibitors for the generation of transgenic pigs” (Texas A&M University System, priority 1996, dated 2002).
“And” between values parts separate entries of the source, which are not always exact repeats. Equal values may be shown once. One block for each molecule: values may come before it.

What was measured:
[1] = tested on: STO feeder cells; test: STO feeder cells plated with or without bFGF, morphology; assay type: cell-based, mouse; settings: PES media containing 40 ng/ml bFGF for 48 hours
Method: (§1) STO feeder cells were plated in PES media alone for 48 hours or in PES media containing 40 ng/ml bFGF for the same period of time. […] It is not presently known whether bFGF is acting directly on the proliferation rate of the PGCs or whether the effect is through a change in the physiology of the STO cells which then effects the PGCs.

[2] = tested on: porcine primordial germ cells; test: Isolation of porcine primordial germ cells with bFGF; assay type: cell-based
Method: as §1
Thirdly, when low density feeders are used to culture porcine PGCs, very few colonies grow and the few that do grow are always in direct contact with the feeder cells. No colonies grow on the plastic, even if surrounded by STO cells. Thus it is unlikely that the STO's are producing a soluble factor. Additionally, to isolate porcine PGC-derived cells, it is an absolute requirement that bFGF be added to the feeders. The bFGF drastically changes the morphology of the feeder cells. Thus the bFGF may be acting on the feeder to promote/inhibit production of a matrix component versus acting directly on the PGC cells. Also, very few colonies are obtained when plating porcine PGCs on feeders made within 6 hours. However, feeders made 24 hours prior to plating yield much better results. Thus this period of time may be required for synthesis and secretion of some matrix component.

[3] = tested on: porcine ICM (pICM); test: In vitro differentiation assay of cultured porcine inner cell mass, graded 1 to 5; assay type: cell-based; settings: for differentiation score on day two, study 2: scale 1 (fully undifferentiated) to 5 (fully differentiated), p<0.05
Text: The inventors have developed a grading system to detect changes in the differentiation status of in vitro cultured PGC cells or the pICM. In the first study porcine ICMs (day 7) were isolated by immunosurgery and cultured 4 days in DMEM-based medium (D medium) or DMEM/Hams F-10 (1:1)-based medium (D/H medium) with or without human leukemia inhibitory factor (hLIF; 1000 μ/ml). For the second study pICMs were collected as above and cultured 4 days in one of six treatments: control medium, human leukemia inhibitory factor (hLIF; 1000 μ/ml), human interleukin-6 (hIL-6; 100 ng/ml), hIL-6+hIL-6 soluble receptor (hIL6+sR; 100 ng/ml+2.5 μg/ml), human oncostatin M (hOSM; 100 ng/ml), or rat ciliary neurotrophic factor (rCNTF; 100 ng/ml). All cytokines were prepared in Dulbecco's Modified Eagles Medium/Hams F-10 (1:1)-based medium. The colonies were photographed daily for morphological analysis.
pICMs were categorized into one of two types based on their morphological profile: type A, non-epithelial or type B, epithelial-like. The pICM differentiation was evaluated using standardized differentiation profiles. Each pICM series was graded on a scale of 1 (fully undifferentiated) to 5 (fully differentiated) for each time point. Differentiation was verified by alkaline phosphatase activity, cytokeratin staining, and scanning electron microscopy. […] Furthermore, addition of rCNTF gave the lowest overall mean differentiation score (2.53±0.15). […] The grading system employed was thus an effective tool for detecting treatment effects on differentiation of the developing pICM.

[4] = tested on: cultured PGCs; test: Passage of cultured PGCs in presence or absence of α2-macroglobulin, alkaline phosphatase positive colonies; assay type: cell-based
Text: The effect of α2-macroglobulin on the ability to passage cells was also studied. To test the ability of α2-macroglobulin to protect against the losses normally observed when cultured PGCs are trypsinized, cells were passaged twice in the presence or absence of α2-macroglobulin, the colonies fixed, stained for alkaline phosphatase and the number of alkaline phosphatase positive colonies determined. PGCs were collected in PES and plated on feeder layers in the presence or absence of media containing 1 μg/ml α2-macroglobulin. Colonies were allowed to grow for 7 days, trypsinized as described above and plated again in media with or without α2-macroglobulin. Samples were done in duplicate and corrected for the number of added cells.

[5] = tested on: bovine PGC's; test: Third passage bovine PGC colonies with or without α2-macroglobulin (preliminary study); assay type: cell-based
Text: The ability of colonies cultured and passaged in the presence or absence of α2-macroglobulin to survive in an undifferentiated state for multiple passages is currently being studied. In a preliminary study twice as many colonies were obtained from third passage bovine PGC's (22 versus 45) cultured in media with α2-macroglobulin than in media without the protease inhibitor. Moreover, the colonies appear on average 2-3 days earlier and are of larger size when cultured in the presence of α2-macroglobulin.

[6] = tested on: PGC; test: Optimal concentration of α2-macroglobulin: ratio of AP positive colonies to control samples; assay type: cell-based; settings: for ratio of AP positive colonies compared to control samples: three trials
Method: An additional study was performed to determine the optimal concentration of α2-macroglobulin. The ratio of AP positive colonies in samples containing either 1 μg/ml or 0.5 μg/ml as compared to control samples was determined for three trials. The ratios at 1 μg/ml were 0.81±0.37, 0.84±0.23 and 0.83±0.27, while at 0.5 μg/ml they were 1.98±0.36, 1.43±0.27 and 1.70±0.41.

[7] = tested on: PGCs; test: Effect of isolation procedure and α2-macroglobulin on PGCs developing into alkaline phosphatase positive colonies; assay type: cell-based, pig; settings: α2-macroglobulin 1 μg/ml; for alkaline phosphatase positive colonies (replicates R1-R3): counted six days later
Method: Genital ridges from two day 25-27 pig fetuses were collected, divided into four groups (a 2×2 study), placed in PES media either with α2-macroglobulin at 1 μg/ml (2 groups) or without α2-macroglobulin (2 groups), and immediately either needle teased to allow colonies to seep out (2 groups) or macerated (2 groups) with the help of a syringe. Briefly, the ridges were broken into small pieces by pressing them against the bottom of a dish with the back of a syringe. The disrupted tissues were further broken up by passing them several times through a 20 gauge needle until all large tissue clumps had been disrupted. Following tissue disruption, samples were centrifuged for 3-5 minutes at 250×g to settle tissue fragments and supernatant containing mostly single cells collected and centrifuged at 1000×g for 5 min. The resulting pellet was resuspended in PES containing LIF, SCF, and bFGF with or without human α2-macroglobulin, cells counted, and plated in triplicate in feeder layers.
Six days later colonies were fixed, stained for alkaline phosphatase activity, and counted.

[8] = tested on: PGC; test: Addition of uteroferrin or uteroferrin rose to PGC culture media; assay type: cell-based
Method: The pellet, containing PGCs, was resuspended in PES media Following collection, the cells were rinsed 3 times by centrifugation and resuspended in PEG medium containing soluble recombinant human stem cells factor at 30 ng/ml, human basic fibroblast growth factor at 40 ng/ml, and LIF at 20 ng/ml and plated onto STO feeder layers. Additionally, the effect of the addition of 100 ng/ml of uteroferrin in the presence or absence of stem cell factor on the number of alkaline phosphatase positive colonies was determined.
In order to determine the beneficial effect provided by the serpin alone, a broad range protease inhibitor called α2-macroglobulin was studied (Feige et al., 1996).

[9] = rCNTF 100 ng/ml, hLIF 1000 μ/ml

Molecule: bFGF: basic fibroblast growth factor
- change in morphology of the feeder cells [1]: drastic change is seen in the morphology of the feeder cells
- requirement for the isolation of porcine primordial germ cells [2]: essential component for the isolation of porcine primordial germ cells

Molecule: hLIF: human leukemia inhibitory factor
- delay of differentiation of the developing pICM, study 1 ([3]; hLIF 1000 μ/ml, D or D/H medium, 4 days, p=0.08): neither hLIF nor culture medium delayed differentiation
- differentiation score on day two, study 2 [3, 9]: 2.70±0.16

- Normalized value ([4]; 1st passage +, 2nd passage +): 2052 colonies per 1000 colonies plated
- Normalized value ([4]; 1st passage +, 2nd passage −): 1512 colonies per 1000 colonies plated
- Normalized value ([4]; 1st passage −, 2nd passage +): 1422 colonies per 1000 colonies plated
- Normalized value ([4]; first passage, media with 1 μg/ml α2-macroglobulin): 22028 colonies per million cells
- Normalized value ([7]; pig 1, macerate): 16395 colonies per million cells
- alkaline phosphatase positive colonies (replicates R1-R3) ([7]; pig 1, macerate): 4712 and 5176 and 4368
- Normalized value ([7]; pig 1, teasing): 18087 colonies per million cells
- alkaline phosphatase positive colonies (replicates R1-R3) ([7]; pig 1, teasing): 4688 and 4960 and 5424
- Normalized value ([7]; pig 2, macerate): 35865 colonies per million cells
- alkaline phosphatase positive colonies (replicates R1-R3) ([7]; pig 2, macerate): 8312 and 7872 and 8896
- Normalized value ([7]; pig 2, teasing): 37380 colonies per million cells
- alkaline phosphatase positive colonies (replicates R1-R3) ([7]; pig 2, teasing): 6200 and 6008 and 6864
Molecule: α2-macroglobulin: broad range protease inhibitor; apoptosis inhibitor added to PGC culture media at 1 μg/ml
- number of colonies from third passage bovine PGC's ([5]; media with α2-macroglobulin, 22 without): 45
- colonies appear earlier than without α2-macroglobulin ([5]; on average): 2 to 3 days
- factor by which the lower dose is more effective in generating AP positive colonies ([6]; 0.5 μg/ml versus 1 μg/ml): ~2
- ratio of AP positive colonies compared to control samples ([6]; α2-macroglobulin 0.5 μg/ml): 1.98±0.36 and 1.43±0.27 and 1.70±0.41
- ratio of AP positive colonies compared to control samples ([6]; α2-macroglobulin 1 μg/ml): 0.81±0.37 and 0.84±0.23 and 0.83±0.27

B1: rCNTF: rat ciliary neurotrophic factor (protein, UniProt P20294 1-200, looked up)
Ciliary neurotrophic factor: MAFAEQTPLTLHRRDLCSRSIWLARKIRSDLTALMESYVKHQGLNKNINLDSVDGVPVASTDRWSEMTEAERLQENLQAYRTFQGMLTKLLEDQRVHFTPTEGDFHQAIHTLMLQVSAFAYQLEELMVLLEQKIPENEADGMPATVGDGGLFEKKLWGLKVLQELSQWTVRSIHDLRVISSHQMGISALESHYGAKDKQM
- differentiation score on day two, study 2 [3, 9]: 2.07±0.15
- overall mean differentiation score, study 2 ([3]; scale 1 to 5, 4 day culture, rCNTF 100 ng/ml): 2.53±0.15

B2: uteroferrin: purple colored, progesterone-induced iron-containing glycoprotein secreted by uterine endometrial epithelium of pigs (protein, UniProt P09889 21-340, looked up)
Tartrate-resistant acid …: GTRTNTRTAPTPILRFVAVGDWGGVPNAPFHTAREMANAKAIATTVKTLGADFILSLGDNFYFTGVHDAKDKRFQETFEDVFSDPSLRNVPWHVLAGNHDHLGNVSAQIAYSKISKRWNFPSPYYRLRFKIPRSNVSVAIFMLDTVTLCGNSDDFVSQQPERPRNLALARTQLAWIKKQLAAAKEDYVLVAGHYPVWSIAEHGPTHCLVKQLLPLLTTHKVTAYLCGHDHNLQYLQDENGLGFVLSGAGNFMDPSKKHLRKVPNGYLRFHFGAENSLGGFAYVEITPKEMSVTYIEASGKSLFKTKLPRRARSEHQHRRA
- effect on the number of resulting PGC colonies [8]: some improvement
